In US20110071108A1, “Beta-Cyclodextrin Derivatives as Antibacterial Agents” (Pinnacle Pharmaceuticals, Inc., priority 2005, published 2011):
Where two headings read alike, the source gives them in different places.

Legend:
Enterococcus faecium = test: Bacterial panel testing, MIC by broth microdilution; type: cell-based; details: 20-24 hours growth
Procedure, shortened: (§1)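 Strains grown 2-4 h, 37° C, MH or BHI broth per strain; McFarland-standardized, diluted in media. Cpd 10 μg/ml in DMSO, 2-fold serial dilution cols 2-12. Rifampicin included. 20-24 h growth; clear wells scored.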

Eschericia coli = test: as above; type: cell-based; details: 20-24 hours growth
Procedure, shortened: as §1

Pseudomonas aeruginosa = test: as above; type: cell-based; details: 20-24 hours growth
Procedure, shortened: as §1

Salmonella choleraesuis = test: as above; type: cell-based; details: 20-24 hours growth
Procedure, shortened: as §1

Staphylococcus aureus = test: as above; type: cell-based; details: 20-24 hours growth
Procedure, shortened: as §1

Lungs cancer cells A549 [1] = tested on: Lungs cancer cells A549
Lungs cancer cells A549 [2] = test: Mammalian cytotoxicity
Bacillus atrophaeus = test: Bacterial panel testing, MIC by broth microdilution; type: cell-based; details: 20-24 hours growth
Procedure, shortened: as §1

| Compound | MIC EF (Enterococcus faecium) [µg/mL] | MIC EC (Eschericia coli) [µg/mL] | MIC PA (Pseudomonas aeruginosa) [µg/mL] | MIC SC (Salmonella choleraesuis) [µg/mL] | MIC SA (Staphylococcus aureus) [µg/mL] | Mammalian Cytotoxicity IC50 (Lungs cancer cells A549 [1]) [µg/mL] | Mammalian Cytotoxicity IC50 (Lungs cancer cells A549 [2]) [µg/mL] | MIC BA (Bacillus atrophaeus) [µg/mL] |
| --- | --- | --- | --- | --- | --- | --- | --- | --- |
| Cl.Cl.Cl.Cl.Cl.Cl.Cl.NCCSC[C@H]1O[C@@H]2O[C@H]3[C@H](O)[C@@H](O)[C@@H](O[C@H]4[C@H](O)[C@@H](O)[C@@H](O[C@H]5[C@H](O)[C@@H](O)[C@@H](O[C@H]6[C@H](O)[C@@H](O)[C@@H](O[C@H]7[C@H](O)[C@@H](O)[C@@H](O[C@H]8[C@H](O)[C@@H](O)[C@@H](O[C@H]1[C@H](O)[C@H]2O)O[C@@H]8CSCCN)O[C@@H]7CSCCN)O[C@@H]6CSCCN)O[C@@H]5CSCCN)O[C@@H]4CSCCN)O[C@@H]3CSCCN | >200 | >200 | >200 | >200 | >200 | 829 |  |  |
| Cl.Cl.Cl.Cl.Cl.Cl.Cl.NCCCSC[C@H]1O[C@@H]2O[C@H]3[C@H](O)[C@@H](O)[C@@H](O[C@H]4[C@H](O)[C@@H](O)[C@@H](O[C@H]5[C@H](O)[C@@H](O)[C@@H](O[C@H]6[C@H](O)[C@@H](O)[C@@H](O[C@H]7[C@H](O)[C@@H](O)[C@@H](O[C@H]8[C@H](O)[C@@H](O)[C@@H](O[C@H]1[C@H](O)[C@H]2O)O[C@@H]8CSCCCN)O[C@@H]7CSCCCN)O[C@@H]6CSCCCN)O[C@@H]5CSCCCN)O[C@@H]4CSCCCN)O[C@@H]3CSCCCN | >200 |  | >200 | >200 | >200 | 191 |  |  |
| Cl.Cl.Cl.Cl.Cl.Cl.Cl.NCCCCSC[C@H]1O[C@@H]2O[C@H]3[C@H](O)[C@@H](O)[C@@H](O[C@H]4[C@H](O)[C@@H](O)[C@@H](O[C@H]5[C@H](O)[C@@H](O)[C@@H](O[C@H]6[C@H](O)[C@@H](O)[C@@H](O[C@H]7[C@H](O)[C@@H](O)[C@@H](O[C@H]8[C@H](O)[C@@H](O)[C@@H](O[C@H]1[C@H](O)[C@H]2O)O[C@@H]8CSCCCCN)O[C@@H]7CSCCCCN)O[C@@H]6CSCCCCN)O[C@@H]5CSCCCCN)O[C@@H]4CSCCCCN)O[C@@H]3CSCCCCN | >200 | >200 | >200 | >200 | >200 | 198 |  |  |
| CC(C)C[C@H](N)C(=O)NC[C@H]1O[C@@H]2O[C@H]3[C@H](O)[C@@H](O)[C@@H](O[C@H]4[C@H](O)[C@@H](O)[C@@H](O[C@H]5[C@H](O)[C@@H](O)[C@@H](O[C@H]6[C@H](O)[C@@H](O)[C@@H](O[C@H]7[C@H](O)[C@@H](O)[C@@H](O[C@H]8[C@H](O)[C@@H](O)[C@@H](O[C@H]1[C@H](O)[C@H]2O)O[C@@H]8CNC(=O)[C@@H](N)CC(C)C)O[C@@H]7CNC(=O)[C@@H](N)CC(C)C)O[C@@H]6CNC(=O)[C@@H](N)CC(C)C)O[C@@H]5CNC(=O)[C@@H](N)CC(C)C)O[C@@H]4CNC(=O)[C@@H](N)CC(C)C)O[C@@H]3CNC(=O)[C@@H](N)CC(C)C | >200 | >200 | >200 | >200 | >200 |  | 215 |  |
| N[C@@H](Cc1ccccc1)C(=O)NC[C@H]1O[C@@H]2O[C@H]3[C@H](O)[C@@H](O)[C@@H](O[C@H]4[C@H](O)[C@@H](O)[C@@H](O[C@H]5[C@H](O)[C@@H](O)[C@@H](O[C@H]6[C@H](O)[C@@H](O)[C@@H](O[C@H]7[C@H](O)[C@@H](O)[C@@H](O[C@H]8[C@H](O)[C@@H](O)[C@@H](O[C@H]1[C@H](O)[C@H]2O)O[C@@H]8CNC(=O)[C@@H](N)Cc1ccccc1)O[C@@H]7CNC(=O)[C@@H](N)Cc1ccccc1)O[C@@H]6CNC(=O)[C@@H](N)Cc1ccccc1)O[C@@H]5CNC(=O)[C@@H](N)Cc1ccccc1)O[C@@H]4CNC(=O)[C@@H](N)Cc1ccccc1)O[C@@H]3CNC(=O)[C@@H](N)Cc1ccccc1 | >200 | >200 | >200 | >200 | >200 |  | >2000 |  |
| N=C(N)NCCSC[C@H]1O[C@@H]2O[C@H]3[C@H](O)[C@@H](O)[C@@H](O[C@H]4[C@H](O)[C@@H](O)[C@@H](O[C@H]5[C@H](O)[C@@H](O)[C@@H](O[C@H]6[C@H](O)[C@@H](O)[C@@H](O[C@H]7[C@H](O)[C@@H](O)[C@@H](O[C@H]8[C@H](O)[C@@H](O)[C@@H](O[C@H]1[C@H](O)[C@H]2O)O[C@@H]8CSCCNC(=N)N)O[C@@H]7CSCCNC(=N)N)O[C@@H]6CSCCNC(=N)N)O[C@@H]5CSCCNC(=N)N)O[C@@H]4CSCCNC(=N)N)O[C@@H]3CSCCNC(=N)N | >200 | >200 | >200 | >200 | >200 |  | 510 |  |
| NCCCCC(=O)NC[C@H]1O[C@@H]2O[C@H]3[C@H](O)[C@@H](O)[C@@H](O[C@H]4[C@H](O)[C@@H](O)[C@@H](O[C@H]5[C@H](O)[C@@H](O)[C@@H](O[C@H]6[C@H](O)[C@@H](O)[C@@H](O[C@H]7[C@H](O)[C@@H](O)[C@@H](O[C@H]8[C@H](O)[C@@H](O)[C@@H](O[C@H]1[C@H](O)[C@H]2O)O[C@@H]8CNC(=O)CCCCN)O[C@@H]7CNC(=O)CCCCN)O[C@@H]6CNC(=O)CCCCN)O[C@@H]5CNC(=O)CCCCN)O[C@@H]4CNC(=O)CCCCN)O[C@@H]3CNC(=O)CCCCN | >200 | >200 | >200 | >200 | >200 |  | 755 |  |
| CC(C)(C)OC(=O)N[C@@H](Cc1ccccc1)C(=O)NC[C@H]1O[C@@H]2O[C@H]3[C@H](O)[C@@H](O)[C@@H](O[C@H]4[C@H](O)[C@@H](O)[C@@H](O[C@H]5[C@H](O)[C@@H](O)[C@@H](O[C@H]6[C@H](O)[C@@H](O)[C@@H](O[C@H]7[C@H](O)[C@@H](O)[C@@H](O[C@H]8[C@H](O)[C@@H](O)[C@@H](O[C@H]1[C@H](O)[C@H]2O)O[C@@H]8CNC(=O)[C@H](Cc1ccccc1)NC(=O)OC(C)(C)C)O[C@@H]7CNC(=O)[C@H](Cc1ccccc1)NC(=O)OC(C)(C)C)O[C@@H]6CNC(=O)[C@H](Cc1ccccc1)NC(=O)OC(C)(C)C)O[C@@H]5CNC(=O)[C@H](Cc1ccccc1)NC(=O)OC(C)(C)C)O[C@@H]4CNC(=O)[C@H](Cc1ccccc1)NC(=O)OC(C)(C)C)O[C@@H]3CNC(=O)[C@H](Cc1ccccc1)NC(=O)OC(C)(C)C | >200 | >200 | >200 | >200 | >200 |  | 193 | >200 |
| CC(C)C[C@H](NC(=O)OC(C)(C)C)C(=O)NC[C@H]1O[C@@H]2O[C@H]3[C@H](O)[C@@H](O)[C@@H](O[C@H]4[C@H](O)[C@@H](O)[C@@H](O[C@H]5[C@H](O)[C@@H](O)[C@@H](O[C@H]6[C@H](O)[C@@H](O)[C@@H](O[C@H]7[C@H](O)[C@@H](O)[C@@H](O[C@H]8[C@H](O)[C@@H](O)[C@@H](O[C@H]1[C@H](O)[C@H]2O)O[C@@H]8CNC(=O)[C@H](CC(C)C)NC(=O)OC(C)(C)C)O[C@@H]7CNC(=O)[C@H](CC(C)C)NC(=O)OC(C)(C)C)O[C@@H]6CNC(=O)[C@H](CC(C)C)NC(=O)OC(C)(C)C)O[C@@H]5CNC(=O)[C@H](CC(C)C)NC(=O)OC(C)(C)C)O[C@@H]4CNC(=O)[C@H](CC(C)C)NC(=O)OC(C)(C)C)O[C@@H]3CNC(=O)[C@H](CC(C)C)NC(=O)OC(C)(C)C | >200 | >200 | >200 | >200 | >200 |  | 144 | >200 |
| Cl.Cl.Cl.Cl.Cl.Cl.Cl.NCCCCCCSC[C@H]1O[C@@H]2O[C@H]3[C@H](O)[C@@H](O)[C@@H](O[C@H]4[C@H](O)[C@@H](O)[C@@H](O[C@H]5[C@H](O)[C@@H](O)[C@@H](O[C@H]6[C@H](O)[C@@H](O)[C@@H](O[C@H]7[C@H](O)[C@@H](O)[C@@H](O[C@H]8[C@H](O)[C@@H](O)[C@@H](O[C@H]1[C@H](O)[C@H]2O)O[C@@H]8CSCCCCCCN)O[C@@H]7CSCCCCCCN)O[C@@H]6CSCCCCCCN)O[C@@H]5CSCCCCCCN)O[C@@H]4CSCCCCCCN)O[C@@H]3CSCCCCCCN | >200 |  | >200 |  | >200 | 321 |  |  |
| Cl.Cl.Cl.Cl.Cl.Cl.Cl.Cl.Cl.Cl.Cl.Cl.Cl.Cl.NCCCC(N)C(=O)NCC1OC2OC3C(CNC(=O)C(N)CCCN)OC(OC4C(CNC(=O)C(N)CCCN)OC(OC5C(CNC(=O)C(N)CCCN)OC(OC6C(CNC(=O)C(N)CCCN)OC(OC7C(CNC(=O)C(N)CCCN)OC(OC8C(CNC(=O)C(N)CCCN)OC(OC1C(O)C2O)C(O)C8O)C(O)C7O)C(O)C6O)C(O)C5O)C(O)C4O)C(O)C3O (stereo not shown) | >200 | >200 |  | >200 | >200 | 860 |  |  |
| Cl.Cl.Cl.Cl.Cl.Cl.NCC1OC2OC3C(CN)OC(OC4C(CN)OC(OC5C(CN)OC(OC6C(CN)OC(OC7C(CN)OC(OC1C(O)C2O)C(O)C7O)C(O)C6O)C(O)C5O)C(O)C4O)C(O)C3O (stereo not shown) | >200 | >200 |  | >200 | >200 |  | 109.3 | >200 |
| Cl.Cl.Cl.Cl.Cl.Cl.Cl.NCc1ccccc1CSCC1OC2OC3C(CSCc4ccccc4CN)OC(OC4C(CSCc5ccccc5CN)OC(OC5C(CSCc6ccccc6CN)OC(OC6C(CSCc7ccccc7CN)OC(OC7C(CSCc8ccccc8CN)OC(OC8C(CSCc9ccccc9CN)OC(OC1C(O)C2O)C(O)C8O)C(O)C7O)C(O)C6O)C(O)C5O)C(O)C4O)C(O)C3O (stereo not shown) | >100 |  | >100 |  |  | 193.5 |  |  |
